Test results published in patent US7211572B2 (Japan Tobacco Inc., priority 2003, dated 2007).

biological target: T1, HIV integrase (Human immunodeficiency virus type 1 group M subtype B, UniProt P12497, F1332H); experiment: Determination of enzyme (HIV integrase) inhibitory activity; format: biochemical; settings: recombinant HIV integrase (F185H), strand transfer ELISA, absorbance at 450 nm
T1 construct: HIV integrase full length gene; made in house; host or cells: Escherichia coli BL21(DE3), plasmid pET21a-INH
Source text: The following explains evaluation methods of the HIV integrase inhibitory activity of the compound of the present invention.
(i) Construction of Recombinant Integrase Gene Expression System
The 185th phenylalanine of HIV integrase full length gene (J. Virol., 67, 425–437 (1993)) was substituted by histidine and inserted into the restriction enzyme NdeI and XhoI sites of plasmid pET21a(+) (Novagen), whereby an integrase expression vector pET21a-INH was constructed.
(ii) Production and Purification of Integrase Protein
Escherichia coli recombinant BL21(DE3) transformed with plasmid pET21a-INH obtained in (i) was shake cultured at 37° C. in a liquid medium containing ampicillin. When the culture reached the logarithmic growth phase, isopropyl-β-D-thiogalactopyranoside was added to promote expression of integrase gene. The culture was continued for 3 hr to promote accumulation of the integrase protein. The recombinant E. coli was collected in pellets by centrifugal separation and preserved at −80° C.
The E. coli was suspended in Lysis buffer (20 mM HEPES (pH 7.5), 5 mM DTT, 10 mM CHAPS, 10% glycerol) containing 1M sodium chloride and subjected to repeat pressurization and depressurization for rupture, and centrifugal separation at 4° C., 40,000×g, 60 min to recover a water-soluble fraction (supernatant). This was diluted 10-fold with Lysis buffer free of sodium chloride, mixed with SP-Sepharose (Pharmacia Corporation) and stirred at 4° C. for 30 min to allow adsorption of integrase protein to the resin. The resin was washed with Lysis buffer containing 100 mM sodium chloride and the integrase protein was eluted with Lysis buffer containing 1M sodium chloride.
The eluted integrase protein solution was applied to a Superdex 75 (Pharmacia Corporation) column for gel filtration. The protein was eluted with Lysis buffer containing 1M sodium chloride.
The obtained fractions of the integrase protein were collected and preserved at −80° C.
(iii) Preparation of DNA Solution
The following DNA synthesized by Greiner was dissolved in TE buffer (10 mM Tris-hydrochloric acid (pH 8.0), 1 mM EDTA) and mixed with donor DNA, target DNA, and each complementary strand (+ and − strands) to 1 μM. The mixture was heated at 95° C. for 5 min, 80° C. for 10 min, 70° C. for 10 min, 60° C. for 10 min, 50° C. for 10 min and 40° C. for 10 min and preserved at 25° C. to give a double stranded DNA, which was used for the test.
Donor DNA (− strand having biotin attached to the 5′ terminal)
(iv) Determination of Enzyme (HIV Integrase) Inhibitory Activity
The donor DNA was diluted with TE buffer to 10 nM, of which 50 μl was added to each well of streptavidin-coated microtiter plate (Roche) and allowed to adsorb at 37° C. for 60 min. The DNA was washed with phosphate buffer (Dulbecco PBS, Sanko Junyaku Co., Ltd.) containing 0.1% Tween 20 and phosphate buffer. Then, a reaction mixture (70 μl) having the following composition, a test substance (10 μl) diluted with the reaction mixture and 100 μg/ml integrase protein (10 μl) were added to each well and reacted at 37° C. for 60 min.
Composition of the reaction mixture: 30 mM MOPS (3-morpholinopropanesulfonic acid), 5 mM magnesium chloride, 3 mM DTT (dithiothreitol), 0.1 mg/ml BSA (bovine serum albumin), 5% glycerol, 10% DMSO (dimethyl sulfoxide), 0.01% Tween 20.
Then, 50 nM target DNA (10 μl) was added, reacted at 37° C. for 10 min and washed with phosphate buffer containing 0.1% Tween 20 to stop the reaction.
Then, 100 mU/ml peroxidase labeled anti-digoxigenin antibody solution (Roche, 100 μl) was added, and the mixture was reacted at 30° C. for 60 min, followed by washing with phosphate buffer containing 0.1% Tween 20.
A peroxidase color solution (Bio Rad, 100 μl) was added and allowed to react at room temperature for 4 min. The color reaction was stopped by adding 1N sulfuric acid (100 μl). The absorbance at 450 nm was measured. […]

`CS(=O)(=O)Cc1cc(=O)c(O)c2n1CCN(Cc1ccc(Cl)c(Cl)c1)C2=O` [Example 31, 2-(3,4-dichlorobenzyl)-9-hydroxy-6-methanesulfonylmethyl-3,4-dihydro-2H-pyrido[1,2-a]pyrazine-1,8-dione] and `CC(C)S(=O)(=O)Cc1cc(=O)c(O)c2n1CCN(Cc1ccc(Cl)c(Cl)c1)C2=O` [Example 37, 2-(3,4-dichlorobenzyl)-9-hydroxy-6-isopropylsulfonylmethyl-3,4-dihydro-2H-pyrido[1,2-a]pyrazine-1,8-dione] fall in the same range of IC50: 10 to 100 nM for the first, 10 to 100 nM for the second.

`CS(=O)(=O)CCC1CN(Cc2ccc(Cl)c(Cl)c2)C(=O)c2c(O)c(=O)ccn21` (centres unmarked) [Example 32, 2-(3,4-dichlorobenzyl)-9-hydroxy-4-(2-methanesulfonylethyl)-3,4-dihydro-2H-pyrido[1,2-a]pyrazine-1,8-dione] and `CSCCC1CN(Cc2ccc(Cl)c(Cl)c2)C(=O)c2c(O)c(=O)ccn21` (centres unmarked) [Example 33, 2-(3,4-dichlorobenzyl)-9-hydroxy-4-(2-methylsulfanylethyl)-3,4-dihydro-2H-pyrido[1,2-a]pyrazine-1,8-dione] fall in the same range of IC50: 10 to 100 nM for the first, 10 to 100 nM for the second.

`COC(=O)c1cc(=O)c(O)c2n1CCN(Cc1ccc(Cl)c(Cl)c1)C2=O` [Example 34, methyl 2-(3,4-dichlorobenzyl)-9-hydroxy-1,8-dioxo-1,3,4,8-tetrahydro-2H-pyrido[1,2-a]pyrazine-6-carboxylate] and `CC(=O)c1cc(=O)c(O)c2n1CCN(Cc1ccc(Cl)c(Cl)c1)C2=O` [Example 35, 6-acetyl-2-(3,4-dichlorobenzyl)-9-hydroxy-3,4-dihydro-2H-pyrido[1,2-a]pyrazine-1,8-dione] fall in the same range of IC50: 10 to 100 nM for the first, 10 to 100 nM for the second.

`CC(C)SCc1cc(=O)c(O)c2n1CCN(Cc1ccc(Cl)c(Cl)c1)C2=O` [Example 36, 2-(3,4-dichlorobenzyl)-9-hydroxy-6-isopropylsulfanylmethyl-3,4-dihydro-2H-pyrido[1,2-a]pyrazine-1,8-dione] and `CC(C)Cc1cc(=O)c(O)c2n1CCN(Cc1ccc(Cl)c(Cl)c1)C2=O` [Example 54, 2-(3,4-dichlorobenzyl)-9-hydroxy-6-isobutyl-3,4-dihydro-2H-pyrido[1,2-a]pyrazine-1,8-dione] fall in the same range of IC50: 10 to 100 nM for the first, 10 to 100 nM for the second.

`CC(C)OCc1cc(=O)c(O)c2n1CCN(Cc1ccc(Cl)c(Cl)c1)C2=O` [Example 38, 2-(3,4-dichlorobenzyl)-9-hydroxy-6-isopropoxymethyl-3,4-dihydro-2H-pyrido[1,2-a]pyrazine-1,8-dione] and `CC(C)COCc1cc(=O)c(O)c2n1CCN(Cc1ccc(Cl)c(Cl)c1)C2=O` [Example 39, 2-(3,4-dichlorobenzyl)-9-hydroxy-6-isobutoxymethyl-3,4-dihydro-2H-pyrido[1,2-a]pyrazine-1,8-dione] fall in the same range of IC50: 10 to 100 nM for the first, 10 to 100 nM for the second.

`CC(O)c1cc(=O)c(O)c2n1CCN(Cc1ccc(Cl)c(Cl)c1)C2=O` (centres unmarked) [Example 40, 2-(3,4-dichlorobenzyl)-9-hydroxy-6-(1-hydroxyethyl)-3,4-dihydro-2H-pyrido[1,2-a]pyrazine-1,8-dione] and `CC(C)c1cc(=O)c(O)c2n1CCN(Cc1ccc(Cl)c(Cl)c1)C2=O` [Example 46, 2-(3,4-dichlorobenzyl)-9-hydroxy-6-isopropyl-3,4-dihydro-2H-pyrido[1,2-a]pyrazine-1,8-dione] fall in the same range of IC50: 10 to 100 nM for the first, 10 to 100 nM for the second.

`O=C1c2c(O)c(=O)cc(COc3ccccc3)n2CCN1Cc1ccc(Cl)c(Cl)c1` [Example 41, 2-(3,4-dichlorobenzyl)-9-hydroxy-6-phenoxymethyl-3,4-dihydro-2H-pyrido[1,2-a]pyrazine-1,8-dione] and `O=C1c2c(O)c(=O)cc(-c3ccccc3)n2CCN1Cc1ccc(Cl)c(Cl)c1` [Example 49, 2-(3,4-dichlorobenzyl)-9-hydroxy-6-phenyl-3,4-dihydro-2H-pyrido[1,2-a]pyrazine-1,8-dione] fall in the same range of IC50: 10 to 100 nM for the first, 10 to 100 nM for the second.

`O=C1c2c(O)c(=O)ccn2CCN1Cc1ccc(F)cc1` [Example 42, 2-(4-fluorobenzyl)-9-hydroxy-3,4-dihydro-2H-pyrido[1,2-a]pyrazine-1,8-dione] and `O=C1c2c(O)c(=O)ccn2CCN1Cc1ccc(Cl)cc1` [Example 45, 2-(4-chlorobenzyl)-9-hydroxy-3,4-dihydro-2H-pyrido[1,2-a]pyrazine-1,8-dione] fall in the same range of IC50: 10 to 100 nM for the first, 10 to 100 nM for the second.

Compared with `O=C1c2c(O)c(=O)ccn2CCN1Cc1cccc(Cl)c1` [Example 43, 2-(3-chlorobenzyl)-9-hydroxy-3,4-dihydro-2H-pyrido[1,2-a]pyrazine-1,8-dione], `O=C1c2c(O)c(=O)ccn2CCN1Cc1ccccc1` [Example 44, 2-benzyl-9-hydroxy-3,4-dihydro-2H-pyrido[1,2-a]pyrazine-1,8-dione] is higher in IC50: 10 to 100 nM for the first, 100 to 1000 nM for the second. The first is the more potent here.

`CC(C)C(=O)c1cc(=O)c(O)c2n1CCN(Cc1ccc(Cl)c(Cl)c1)C2=O` [Example 47, 2-(3,4-dichlorobenzyl)-9-hydroxy-6-isobutyryl-3,4-dihydro-2H-pyrido[1,2-a]pyrazine-1,8-dione] and `CCC(=O)c1cc(=O)c(O)c2n1CCN(Cc1ccc(Cl)c(Cl)c1)C2=O` [Example 59, 2-(3,4-dichlorobenzyl)-9-hydroxy-6-propionyl-3,4-dihydro-2H-pyrido[1,2-a]pyrazine-1,8-dione] cannot be ordered by IC50: less than 10 nM for the first, less than 10 nM for the second.

`O=Cc1cc(=O)c(O)c2n1CCN(Cc1ccc(Cl)c(Cl)c1)C2=O` [Example 48, 2-(3,4-dichlorobenzyl)-9-hydroxy-1,8-dioxo-1,3,4,8-tetrahydro-2H-pyrido[1,2-a]pyrazine-6-carbaldehyde] and `Cc1cc(=O)c(O)c2n1CCN(Cc1ccc(Cl)c(Cl)c1)C2=O` [Example 60, 2-(3,4-dichlorobenzyl)-9-hydroxy-6-methyl-3,4-dihydro-2H-pyrido[1,2-a]pyrazine-1,8-dione] fall in the same range of IC50: 10 to 100 nM for the first, 10 to 100 nM for the second.

`O=C1c2c(O)c(=O)ccn2CCN1CCCc1ccccc1` [Example 50, 9-hydroxy-2-(3-phenylpropyl)-3,4-dihydro-2H-pyrido[1,2-a]pyrazine-1,8-dione] and `O=C1c2c(O)c(=O)ccn2CCN1Cc1cccc(Cl)c1F` [Example 51, 2-(3-chloro-2-fluorobenzyl)-9-hydroxy-3,4-dihydro-2H-pyrido[1,2-a]pyrazine-1,8-dione] fall in the same range of IC50: 10 to 100 nM for the first, 10 to 100 nM for the second.

`CC(C)C(O)c1cc(=O)c(O)c2n1CCN(Cc1ccc(Cl)c(Cl)c1)C2=O` (centres unmarked) [Example 53, 2-(3,4-dichlorobenzyl)-9-hydroxy-6-(1-hydroxy-2-methylpropyl)-3,4-dihydro-2H-pyrido[1,2-a]pyrazine-1,8-dione] and `NC(=O)c1cc(=O)c(O)c2n1CCN(Cc1ccc(Cl)c(Cl)c1)C2=O` [Example 55, 2-(3,4-dichlorobenzyl)-9-hydroxy-1,8-dioxo-1,3,4,8-tetrahydro-2H-pyrido[1,2-a]pyrazine-6-carboxamide] fall in the same range of IC50: 10 to 100 nM for the first, 10 to 100 nM for the second.

First: CNC(=O)c1cc(=O)c(O)c2n1CCN(Cc1ccc(Cl)c(Cl)c1)C2=O [Example 56, N-methyl-2-(3,4-dichlorobenzyl)-9-hydroxy-1,8-dioxo-1,3,4,8-tetrahydro-2H-pyrido[1,2-a]pyrazine-6-carboxamide]
Second: O=C(c1ccccc1)c1cc(=O)c(O)c2n1CCN(Cc1ccc(Cl)c(Cl)c1)C2=O [Example 58, 6-benzoyl-2-(3,4-dichlorobenzyl)-9-hydroxy-3,4-dihydro-2H-pyrido[1,2-a]pyrazine-1,8-dione]
The IC50 of the first is higher: 10 to 100 nM for the first, less than 10 nM for the second.

`O=C1c2c(O)c(=O)ccn2CCN1Cc1ccc(Cl)c(F)c1` [Example 57, 2-(4-chloro-3-fluorobenzyl)-9-hydroxy-3,4-dihydro-2H-pyrido[1,2-a]pyrazine-1,8-dione] showed an IC50 of 10 to 100 nM.
